Experimental data published in patent US20080262026A1, “Therapeutic Agents 684” (AstraZeneca AB, priority 2007, published 2008).
Where two headings read alike, the source gives them in different places.

How the values were obtained:
CB1 receptor = target: T1, CB1 receptor (Homo sapiens, UniProt P21554); test: [35S]-GTPγS binding assay, inhibition of CP55940 (EC80) stimulated activity in membranes of cells stably transfected with the CB1 gene; assay type: biochemical
T1 construct: expressed in transfected cells
Description: 10 μg of membranes prepared from cells stably transfected with the CB1 gene were suspended in 200 μl of 100 mM NaCl, 5 mM MgCl2, 1 mM EDTA, 50 mM HEPES (pH 7.4), 1 mM DTT, 0.1% BSA and 100 μM GDP. To this was added an EC80 concentration of agonist (CP55940), the required concentration of test compound and 0.1 μCi [^35S]-GTPγS. The reaction was allowed to proceed at 30° C. for 45 min. Samples were then transferred on to GF/B filters using a cell harvester and washed with wash buffer (50 mM Tris (pH 7.4), 5 mM MgCl2, 50 mM NaCl). Filters were then covered with scintilant and counted for the amount of [^35S]-GTPγS retained by the filter.
Activity is measured in the absence of all ligands (minimum activity) or in the presence of an EC80 concentration of CP55940 (maximum activity). These activities are set as 0% and 100% activity respectively. At various concentrations of novel ligand, activity is calculated as a percentage of the maximum activity and plotted. The data are fitted using the equation y=A+((B−A)/1+((C/x)ÚD)) and the IC50 value determined as the concentration required to give half maximal inhibition of GTPγS binding under the conditions used.

[1] = Solubility in dimethyl sulfoxide; assay type: physicochemical; settings: organic solvent dimethyl sulfoxide
From the text: The compounds of the present invention have improved solubility in organic solvents compared to compounds in the prior art. […] It would be expected that this increase in solubility in organic solvents would lead to improvements in bioavailability and ease of manufacture and formulation.

[2] = half maximal inhibition of GTPγS binding, EC80 concentration of agonist CP55940, 30° C. 45 min, read-out: IC50

T1 sequence (P21554 whole entry): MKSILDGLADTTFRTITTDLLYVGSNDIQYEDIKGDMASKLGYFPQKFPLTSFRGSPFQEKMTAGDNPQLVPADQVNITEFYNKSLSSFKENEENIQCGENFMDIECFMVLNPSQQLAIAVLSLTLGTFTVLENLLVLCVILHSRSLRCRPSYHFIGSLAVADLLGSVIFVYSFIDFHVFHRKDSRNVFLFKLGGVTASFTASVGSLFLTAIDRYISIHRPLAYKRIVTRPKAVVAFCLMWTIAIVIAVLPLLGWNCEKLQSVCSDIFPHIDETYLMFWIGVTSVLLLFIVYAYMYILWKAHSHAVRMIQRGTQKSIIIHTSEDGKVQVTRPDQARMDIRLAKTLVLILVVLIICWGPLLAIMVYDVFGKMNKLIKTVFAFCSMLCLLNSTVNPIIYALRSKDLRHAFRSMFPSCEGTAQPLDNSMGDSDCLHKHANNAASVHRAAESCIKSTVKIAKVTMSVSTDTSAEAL

Cc1c2c(n(-c3ccc(Cl)cc3Cl)c1-c1ccc(CN3CCC(F)(F)C3)cc1)CCN(N1CCCCC1)C2=O [Example 1, 1-(2,4-dichlorophenyl)-2-{4-[(3,3-difluoropyrrolidin-1-yl)methyl]phenyl}-3-methyl-5-piperidin-1-yl-1,5,6,7-tetrahydro-4H-pyrrolo[3,2-c]pyridin-4-one]
IC50 (CB1 receptor; [2]): 5.1 nM

Cc1c2c(n(-c3ccc(Cl)cc3Cl)c1-c1ccc(CN3CC(F)(F)C3)cc1)CCN(N1CCCCC1)C2=O [Example 2, 1-(2,4-dichlorophenyl)-2-{4-[(3,3-difluoroazetidin-1-yl)methyl]phenyl}-3-methyl-5-piperidin-1-yl-1,5,6,7-tetrahydro-4H-pyrrolo[3,2-c]pyridin-4-one]
IC50 (CB1 receptor; [2]): 7.5 nM

Cc1c2c(n(-c3ccc(Cl)cc3Cl)c1-c1ccc(/C=C/CCC(F)(F)F)cc1)CCN(N1CCCCC1)C2=O [Example 3, 1-(2,4-dichlorophenyl)-3-methyl-5-piperidin-1-yl-2-{4-[5,5,5-trifluoropent-1-en-1-yl]phenyl}-1,5,6,7-tetrahydro-4H-pyrrolo[3,2-c]pyridin-4-one]
IC50 (CB1 receptor; [2]): 5 nM

Cc1c2c(n(-c3ccc(Cl)cc3Cl)c1-c1ccc(CCCCC(F)(F)F)cc1)CCN(N1CCCCC1)C2=O [Example 4, 1-(2,4-dichlorophenyl)-3-methyl-5-piperidin-1-yl-2-[4-(5,5,5-trifluoropentyl)phenyl]-1,5,6,7-tetrahydro-4H-pyrrolo[3,2-c]pyridin-4-one]
IC50 (CB1 receptor; [2]): 2.5 nM

CCC/C=C/c1ccc(-c2c(C)c3c(n2-c2ccc(Cl)cc2Cl)CCN(N2CCCCC2)C3=O)cc1 [Example 5, 1-(2,4-dichlorophenyl)-3-methyl-2-{4-[pent-1-en-1-yl]phenyl}-5-piperidin-1-yl-1,5,6,7-tetrahydro-4H-pyrrolo[3,2-c]pyridin-4-one]
IC50 (CB1 receptor; [2]): 2.1 nM

CCCCCc1ccc(-c2c(C)c3c(n2-c2ccc(Cl)cc2Cl)CCN(N2CCCCC2)C3=O)cc1 [Example 6, 1-(2,4-dichlorophenyl)-3-methyl-2-(4-pentylphenyl)-5-piperidin-1-yl-1,5,6,7-tetrahydro-4H-pyrrolo[3,2-c]pyridin-4-one]
IC50 (CB1 receptor): 2.1 nM

Cc1c2c(n(-c3ccc(Cl)cc3Cl)c1-c1ccc(Cl)cc1)CCN(N1CCCCC1)C2=O [Example 19 of WO03/027114, 2-(4-chlorophenyl)-1-(2,4-dichlorophenyl)-3-methyl-5-(1-piperidinyl)-1,5,6,7-tetrahydro-4H-pyrrolo-[3,2-c]pyridin-4-one]
solubility in dimethyl sulfoxide [1]: insoluble
